Source: patent publication US20230183292A1, “IMMUNOMODULATORS” (priority 2020, published 2023)
pIC50: −log10 of the molar value. Starred links: 1 amine or outer side, 2 acyl side, 3 side chain; linkers in the order of their positions; H or OH if unused. Positions of bridges follow the written chain, without caps; N, C: chain ends. Non-standard residues stand in square brackets, D forms with d. Residues, ends and D or L forms follow the SMILES beside them. Groups on a side chain read outwards from the residue. *: point of attachment. Ursodeoxycholyl = C[C@H](CCC(=O)*)[C@H]1CC[C@H]2[C@@H]3[C@@H](O)C[C@@H]4C[C@H](O)CC[C@]4(C)[C@H]3CC[C@]12C; Cholyl = C[C@H](CCC(=O)*)[C@H]1CC[C@H]2[C@@H]3[C@H](O)C[C@@H]4C[C@H](O)CC[C@]4(C)[C@H]3C[C@H](O)[C@]12C; X35 = O=C(Cn1cc(C[C@H](N[*:1])C(=O)[*:2])c2ccccc21)NCC(F)(F)F; X22 = O=C(Cn1cc(C[C@H](N[*:1])C(=O)[*:2])c2ccccc21)NCCC1CC1; X11 = O=C(Cn1cc(C[C@H](N[*:1])C(=O)[*:2])c2ccccc21)NCCCCCO; X30 = CCCCCCOC(=O)Cn1cc(C[C@H](N[*:1])C(=O)[*:2])c2ccccc21; X4 = O=C(Cn1cc(C[C@H](N[*:1])C(=O)[*:2])c2ccccc21)OCCOCCO; X34 = CCCCOC(=O)Cn1cc(C[C@H](N[*:1])C(=O)[*:2])c2ccccc21; X7 = NCCCCNC(=O)Cn1cc(C[C@H](N[*:1])C(=O)[*:2])c2ccccc21; X37 = O=C(Cn1cc(C[C@H](N[*:1])C(=O)[*:2])c2ccccc21)OCCO; X1 = NCCNC(=O)Cn1cc(C[C@H](N[*:1])C(=O)[*:2])c2ccccc21; Pro(4R-Me) = C[C@H]1CN[C@H](C(=O)O)C1; NMeNle = CCCC[C@H](NC)C(=O)O; NMeA = CN[C@@H](C)C(=O)O; Dab = NCC[C@H](N)C(=O)O; Dap = NC[C@H](N)C(=O)O

target: T1, PD-1/PD-L1 (Homo sapiens, UniProt Q9NZQ7); test: PD-1/PD-L1 Homogenous Time-Resolved Fluorescence (HTRF) binding assay; conditions: PD-L1-His 10 nM, PD-1-Ig 20 nM; read-out: HTRF IC50
T1 construct: TVMV protease site (C); made in house; host or cells: HEK293T cells
Summary of the method: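 Inhibitors pre-incubated 15 min with PD-L1-His (10 nM final) in dPBS, 0.1% BSA, 0.05% Tween-20, then 15 min with PD-1-Ig (20 nM final). Eu-cryptate anti-Ig (1 nM) and APC anti-His (20 nM) added, 30 min equilibration; HTRF 665/620 nm ratio. Human ECD proteins from HEK293T.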

T1 sequence (Q9NZQ7 18-239): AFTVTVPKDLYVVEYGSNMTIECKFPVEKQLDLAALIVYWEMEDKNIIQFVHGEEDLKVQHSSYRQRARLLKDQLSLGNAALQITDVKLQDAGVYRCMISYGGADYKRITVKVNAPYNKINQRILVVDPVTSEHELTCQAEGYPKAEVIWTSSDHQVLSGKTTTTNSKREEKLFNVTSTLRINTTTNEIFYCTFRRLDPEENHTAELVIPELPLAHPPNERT

SMILES | pIC50
CCCC[C@H]1C(=O)N(C)[C@@H](CCCC)C(=O)N[C@@H](CC(C)C)C(=O)N[C@H](C(=O)NCC(N)=O)CSCC(=O)N[C@@H](Cc2ccc(O)cc2)C(=O)N(C)[C@@H](C)C(=O)N[C@@H](CC(N)=O)C(=O)N2CCC[C@H]2C(=O)N[C@@H](CNC(=O)CNC(=O)CC[C@@H](C)[C@H]2CC[C@H]3[C@@H]4[C@H](O)C[C@@H]5C[C@H](O)CC[C@]5(C)[C@H]4C[C@H](O)[C@]23C)C(=O)N[C@@H](CC(C)C)C(=O)N2C[C@H](C)C[C@H]2C(=O)N[C@@H](Cc2c[nH]c3ccccc23)C(=O)N[C@@H](CCNC(=O)CNC(=O)CC[C@@H](C)[C@H]2CC[C@H]3[C@@H]4[C@H](O)C[C@@H]5C[C@H](O)CC[C@]5(C)[C@H]4C[C@H](O)[C@]23C)C(=O)N[C@@H](Cc2cn(CC(=O)NCCC3CC3)c3ccccc23)C(=O)N1C [Example 2028] ({CH2CO}-Y[NMeA]NP[Dap]([Gly-Cholyl])L[Pro(4R-Me)]W[Dab]([Gly-Cholyl])[X22][NMeNle][NMeNle]LCG-NH2; thioether N-14) | 6.18
CCCC[C@H]1C(=O)N(C)[C@@H](CCCC)C(=O)N[C@@H](CC(C)C)C(=O)N[C@H](C(=O)NCC(N)=O)CSCC(=O)N[C@@H](Cc2ccc(O)cc2)C(=O)N(C)[C@@H](C)C(=O)N[C@@H](CC(N)=O)C(=O)N2CCC[C@H]2C(=O)N[C@@H](CNC(=O)CNC(=O)CC[C@@H](C)[C@H]2CC[C@H]3[C@@H]4[C@H](O)C[C@@H]5C[C@H](O)CC[C@]5(C)[C@H]4C[C@H](O)[C@]23C)C(=O)N[C@@H](CC(C)C)C(=O)N2C[C@H](C)C[C@H]2C(=O)N[C@@H](Cc2c[nH]c3ccccc23)C(=O)N[C@@H](CCNC(=O)CNC(=O)CC[C@@H](C)[C@H]2CC[C@H]3[C@@H]4[C@H](O)C[C@@H]5C[C@H](O)CC[C@]5(C)[C@H]4C[C@H](O)[C@]23C)C(=O)N[C@@H](Cc2cn(CC(=O)NCCCCCO)c3ccccc23)C(=O)N1C [Example 2029] ({CH2CO}-Y[NMeA]NP[Dap]([Gly-Cholyl])L[Pro(4R-Me)]W[Dab]([Gly-Cholyl])[X11][NMeNle][NMeNle]LCG-NH2; thioether N-14) | 6.17
CCCC[C@H]1C(=O)N(C)[C@@H](CCCC)C(=O)N[C@@H](CC(C)C)C(=O)N[C@H](C(=O)NCC(N)=O)CSCC(=O)N[C@@H](Cc2ccc(O)cc2)C(=O)N(C)[C@@H](C)C(=O)N[C@@H](CC(N)=O)C(=O)N2CCC[C@H]2C(=O)N[C@@H](CNC(=O)CNC(=O)CC[C@@H](C)[C@H]2CC[C@H]3[C@@H]4[C@H](O)C[C@@H]5C[C@H](O)CC[C@]5(C)[C@H]4C[C@H](O)[C@]23C)C(=O)N[C@@H](CC(C)C)C(=O)N2C[C@H](C)C[C@H]2C(=O)N[C@@H](Cc2c[nH]c3ccccc23)C(=O)N[C@@H](CCNC(=O)CNC(=O)CC[C@@H](C)[C@H]2CC[C@H]3[C@@H]4[C@H](O)C[C@@H]5C[C@H](O)CC[C@]5(C)[C@H]4C[C@H](O)[C@]23C)C(=O)N[C@@H](Cc2cn(CC(=O)NCC(F)(F)F)c3ccccc23)C(=O)N1C [Example 2030] ({CH2CO}-Y[NMeA]NP[Dap]([Gly-Cholyl])L[Pro(4R-Me)]W[Dab]([Gly-Cholyl])[X35][NMeNle][NMeNle]LCG-NH2; thioether N-14) | 5.25
CCCC[C@H]1C(=O)N(C)[C@@H](CCCC)C(=O)N[C@@H](CC(C)C)C(=O)N[C@H](C(=O)NCC(N)=O)CSCC(=O)N[C@@H](Cc2ccc(O)cc2)C(=O)N(C)[C@@H](C)C(=O)N[C@@H](CC(N)=O)C(=O)N2CCC[C@H]2C(=O)N[C@@H](CNC(=O)CNC(=O)CC[C@@H](C)[C@H]2CC[C@H]3[C@@H]4[C@H](O)C[C@@H]5C[C@H](O)CC[C@]5(C)[C@H]4C[C@H](O)[C@]23C)C(=O)N[C@@H](CC(C)C)C(=O)N2C[C@H](C)C[C@H]2C(=O)N[C@@H](Cc2c[nH]c3ccccc23)C(=O)N[C@@H](CCNC(=O)CNC(=O)CC[C@@H](C)[C@H]2CC[C@H]3[C@@H]4[C@H](O)C[C@@H]5C[C@H](O)CC[C@]5(C)[C@H]4C[C@H](O)[C@]23C)C(=O)N[C@@H](Cc2cn(CC(=O)NCCCCN)c3ccccc23)C(=O)N1C [Example 2031] ({CH2CO}-Y[NMeA]NP[Dap]([Gly-Cholyl])L[Pro(4R-Me)]W[Dab]([Gly-Cholyl])[X7][NMeNle][NMeNle]LCG-NH2; thioether N-14) | 6.31
CCCC[C@H]1C(=O)N(C)[C@@H](CCCC)C(=O)N[C@@H](CC(C)C)C(=O)N[C@H](C(=O)NCC(N)=O)CSCC(=O)N[C@@H](Cc2ccc(O)cc2)C(=O)N(C)[C@@H](C)C(=O)N[C@@H](CC(N)=O)C(=O)N2CCC[C@H]2C(=O)N[C@@H](CNC(=O)CC[C@@H](C)[C@H]2CC[C@H]3[C@@H]4[C@@H](O)C[C@@H]5C[C@H](O)CC[C@]5(C)[C@H]4CC[C@]23C)C(=O)N[C@@H](CC(C)C)C(=O)N2C[C@H](C)C[C@H]2C(=O)N[C@@H](Cc2c[nH]c3ccccc23)C(=O)N[C@@H](CCNC(=O)CC[C@@H](C)[C@H]2CC[C@H]3[C@@H]4[C@@H](O)C[C@@H]5C[C@H](O)CC[C@]5(C)[C@H]4CC[C@]23C)C(=O)N[C@@H](Cc2cn(CC(=O)NCCN)c3ccccc23)C(=O)N1C [Example 2032] ({CH2CO}-Y[NMeA]NP[Dap](Ursodeoxycholyl)L[Pro(4R-Me)]W[Dab](Ursodeoxycholyl)[X1][NMeNle][NMeNle]LCG-NH2; thioether N-14) | 6.34
CCCCOC(=O)Cn1cc(C[C@@H]2NC(=O)[C@H](CCNC(=O)CNC(=O)CC[C@@H](C)[C@H]3CC[C@H]4[C@@H]5[C@H](O)C[C@@H]6C[C@H](O)CC[C@]6(C)[C@H]5C[C@H](O)[C@]34C)NC(=O)[C@H](Cc3c[nH]c4ccccc34)NC(=O)[C@@H]3C[C@@H](C)CN3C(=O)[C@H](CC(C)C)NC(=O)[C@H](CNC(=O)CNC(=O)CC[C@@H](C)[C@H]3CC[C@H]4[C@@H]5[C@H](O)C[C@@H]6C[C@H](O)CC[C@]6(C)[C@H]5C[C@H](O)[C@]34C)NC(=O)[C@@H]3CCCN3C(=O)[C@H](CC(N)=O)NC(=O)[C@H](C)N(C)C(=O)[C@H](Cc3ccc(O)cc3)NC(=O)CSC[C@@H](C(=O)NCC(N)=O)NC(=O)[C@H](CC(C)C)NC(=O)[C@H](CCCC)N(C)C(=O)[C@H](CCCC)N(C)C2=O)c2ccccc21 [Example 2033] ({CH2CO}-Y[NMeA]NP[Dap]([Gly-Cholyl])L[Pro(4R-Me)]W[Dab]([Gly-Cholyl])[X34][NMeNle][NMeNle]LCG-NH2; thioether N-14) | 8.38
CCCCCCOC(=O)Cn1cc(C[C@@H]2NC(=O)[C@H](CCNC(=O)CNC(=O)CC[C@@H](C)[C@H]3CC[C@H]4[C@@H]5[C@H](O)C[C@@H]6C[C@H](O)CC[C@]6(C)[C@H]5C[C@H](O)[C@]34C)NC(=O)[C@H](Cc3c[nH]c4ccccc34)NC(=O)[C@@H]3C[C@@H](C)CN3C(=O)[C@H](CC(C)C)NC(=O)[C@H](CNC(=O)CNC(=O)CC[C@@H](C)[C@H]3CC[C@H]4[C@@H]5[C@H](O)C[C@@H]6C[C@H](O)CC[C@]6(C)[C@H]5C[C@H](O)[C@]34C)NC(=O)[C@@H]3CCCN3C(=O)[C@H](CC(N)=O)NC(=O)[C@H](C)N(C)C(=O)[C@H](Cc3ccc(O)cc3)NC(=O)CSC[C@@H](C(=O)NCC(N)=O)NC(=O)[C@H](CC(C)C)NC(=O)[C@H](CCCC)N(C)C(=O)[C@H](CCCC)N(C)C2=O)c2ccccc21 [Example 2034] ({CH2CO}-Y[NMeA]NP[Dap]([Gly-Cholyl])L[Pro(4R-Me)]W[Dab]([Gly-Cholyl])[X30][NMeNle][NMeNle]LCG-NH2; thioether N-14) | 5.28
CCCC[C@H]1C(=O)N(C)[C@@H](CCCC)C(=O)N[C@@H](CC(C)C)C(=O)N[C@H](C(=O)NCC(N)=O)CSCC(=O)N[C@@H](Cc2ccc(O)cc2)C(=O)N(C)[C@@H](C)C(=O)N[C@@H](CC(N)=O)C(=O)N2CCC[C@H]2C(=O)N[C@@H](CNC(=O)CNC(=O)CC[C@@H](C)[C@H]2CC[C@H]3[C@@H]4[C@H](O)C[C@@H]5C[C@H](O)CC[C@]5(C)[C@H]4C[C@H](O)[C@]23C)C(=O)N[C@@H](CC(C)C)C(=O)N2C[C@H](C)C[C@H]2C(=O)N[C@@H](Cc2c[nH]c3ccccc23)C(=O)N[C@@H](CCNC(=O)CNC(=O)CC[C@@H](C)[C@H]2CC[C@H]3[C@@H]4[C@H](O)C[C@@H]5C[C@H](O)CC[C@]5(C)[C@H]4C[C@H](O)[C@]23C)C(=O)N[C@@H](Cc2cn(CC(=O)OCCO)c3ccccc23)C(=O)N1C [Example 2035] ({CH2CO}-Y[NMeA]NP[Dap]([Gly-Cholyl])L[Pro(4R-Me)]W[Dab]([Gly-Cholyl])[X37][NMeNle][NMeNle]LCG-NH2; thioether N-14) | 6.08
CCCC[C@H]1C(=O)N(C)[C@@H](CCCC)C(=O)N[C@@H](CC(C)C)C(=O)N[C@H](C(=O)NCC(N)=O)CSCC(=O)N[C@@H](Cc2ccc(O)cc2)C(=O)N(C)[C@@H](C)C(=O)N[C@@H](CC(N)=O)C(=O)N2CCC[C@H]2C(=O)N[C@@H](CNC(=O)CNC(=O)CC[C@@H](C)[C@H]2CC[C@H]3[C@@H]4[C@H](O)C[C@@H]5C[C@H](O)CC[C@]5(C)[C@H]4C[C@H](O)[C@]23C)C(=O)N[C@@H](CC(C)C)C(=O)N2C[C@H](C)C[C@H]2C(=O)N[C@@H](Cc2c[nH]c3ccccc23)C(=O)N[C@@H](CCNC(=O)CNC(=O)CC[C@@H](C)[C@H]2CC[C@H]3[C@@H]4[C@H](O)C[C@@H]5C[C@H](O)CC[C@]5(C)[C@H]4C[C@H](O)[C@]23C)C(=O)N[C@@H](Cc2cn(CC(=O)OCCOCCO)c3ccccc23)C(=O)N1C [Example 2036] ({CH2CO}-Y[NMeA]NP[Dap]([Gly-Cholyl])L[Pro(4R-Me)]W[Dab]([Gly-Cholyl])[X4][NMeNle][NMeNle]LCG-NH2; thioether N-14) | 6.00
